{"source": "patent US6436365B2", "about": "“Process for therapeutic treatment of proliferative diseases” (Schering Aktiengesellschaft, priority 1997, dated 2002)", "key": {"[1]": {"assay": "Topical administration via microperforated balloon catheter after balloon denudation of the infraranal aorta, gamma camera measurement of activity in the lesion", "format": "in vivo, white New Zealand rabbit", "procedure": "The test animal was a white New Zealand rabbit (internal animal identification no.: 1584, male, 3.4 kg of body weight).\nUnder anesthesia (Rompun/Ketavet 1:2, 1 ml/kg of body weight, i.m. administration), the endothelium was damaged with a balloon catheter in the infraranal aorta (balloon denudation). Then, over a period of 5 minutes, technetium 99m-labeled HMPAO was administered to the test animal via a microperforated balloon catheter (4 mm Match-35 PTA, Schneider Company, FRG). The radioactive dose of 0.64 mCi (=23.68 MBq) was administered in a volume of 1 ml.\nDuring the entire experiment, the test animal was under a gamma camera (Elscint SP4 HR) to measure the dispersion of radioactivity in the body. The activity in the lesion was set as a proportion of the total activity (measured at this time in the animal). In the case of this test animal, there was found:\nThe test animal was a white New Zealand rabbit (internal animal identification no.: 1587, male, 3.5 kg of body weight).\nUnder anesthesia (Rompun/Ketavet 1:2, 1 ml/kg of body weight, i.m. administration), the endothelium was damaged with a balloon catheter in the infraranal aorta (balloon denudation). Then, over a period of 5 minutes, technetium 99m-labeled HMPAO was administered to the test animal via a microperforated balloon catheter (4 mm Match-35 PTA, Schneider Company, FRG). The radioactive dose of 1.18 mCi (=43.66 MBq) was administered in a volume of 1 ml.\nThe test animal was a white New Zealand rabbit (internal animal identification no.: 1586, male, 3.3 kg of body weight).\nUnder anesthesia (Rompun/Ketavet 1:2, 1 ml/kg of body weight, i.m. administration), the endothelium was damaged with a balloon catheter in the infraranal aorta (balloon denudation). Then, over a period of 5 minutes, technetium 99m-labeled HMPAO was administered to the test animal via a microperforated balloon catheter (4 mm Match-35 PTA, Schneider Company, FRG). The radioactive dose of 0.45 mCi (=16.65 MBq) was administered in a volume of 1 ml."}, "[2]": {"assay": "Topical administration via coronary perfusion/infusion catheter on arteriosclerotic lesion in the carotid artery, gamma camera measurement of activity at the lesion", "format": "in vivo, white New Zealand rabbit", "details": "for % of the dose at the lesion (activity at the lesion as proportion of total activity in the animal): Example 1, rabbit no. 1708, 0.48 mCi in 0.85 ml; for % of the dose at the lesion (activity in the lesion as proportion of total activity in the animal): Example 2, rabbit no. 1856, 1.91 mCi in 1.0 ml", "procedure": "The test animal, a white New Zealand rabbit (internal animal identification no.: 1708, male, 3.7 kg of body weight), was prepared 4 weeks before the actual administration experiment:\nUnder anesthesia (Rompun/Ketavet 1:2, 1 ml/kg of body weight, i.m. administration), the endothelium was damaged with a 2F Fogarthy balloon catheter in the arteria carotis dextra (balloon denudation). Then, the animal received a special diet with an addition of 0.2% cholesterol. The test animal developed an arteriosclerotic lesion on the balloon-denuded spot created by this pretreatment.\nTopical administration of HMPAO that was labeled with technetium 99m was carried out on the anesthetized test animal (anesthesia type s.o.) via a coronary perfusion/infusion catheter (dispatch 3.0, Xtra slippery coating, manufacturer: Boston Scientific Corporation, Ratingen) directly on the lesion in the carotid artery. The radioactive dose of 0.48 mCi (=17.76 MBq) was administered in a volume of 0.85 ml.\nDuring the entire experiment, the test animal was under a gamma camera (Elscint SP4 HR) to measure the dispersion of radioactivity in the body. The activity at the lesion was set as a proportion of the total activity (measured at this time in the animal). In the case of this test animal, there was found:\nThe test animal, a white New Zealand rabbit (internal animal identification no.: 1856, male, 3.3 kg of body weight), was prepared 4 weeks before the actual administration experiment as follows:\nThe topical administration of the HMPAO that was labeled with technetium 99m was carried out on the anesthetized test animal (anesthesia type s.o.) via a coronary perfusion/infusion catheter (dispatch 3.0, Xtra slippery coating, manufacturer: Boston Scientific Corporation, Ratingen) directly on the lesion in the carotid artery. The radioactive dose of 1.91 mCi (=70.67 MBq) was administered in a volume of 1.0 ml (flushing with 0.3 ml of physiological saline solution).\nDuring the entire experiment, the test animal was under a gamma camera (Elscint SP4 HR) to measure the dispersion of radioactivity in the body. The activity in the lesion was set as a proportion of the total activity (measured at this time in the animal)."}}}
{"smiles": "C/C(=N\\O)C(C)NCC(C)(C)CNC(C)/C(C)=N/O", "note": "(stereo not drawn) [Example 99mTc-HMPAO, metal not drawn]", "values": [{"measurement": "% of the dose at the lesion (activity in the lesion as proportion of total activity in the animal)", "setting": "[1]; 5 minutes post administration, Example 3, rabbit no. 1584, 0.64 mCi in 1 ml", "value": 38.45, "unit": "%"}, {"measurement": "% of the dose at the lesion (activity in the lesion as proportion of total activity in the animal)", "setting": "[1]; 5 minutes post administration, Example 4, rabbit no. 1587, 1.18 mCi in 1 ml", "value": 37.06, "unit": "%"}, {"measurement": "% of the dose at the lesion (activity in the lesion as proportion of total activity in the animal)", "setting": "[1]; 5 minutes post administration, Example 5, rabbit no. 1586, 0.45 mCi in 1 ml", "value": 45.56, "unit": "%"}, {"measurement": "% of the dose at the lesion (activity in the lesion as proportion of total activity in the animal)", "setting": "[1]; 4 hours post administration, Example 3, rabbit no. 1584, 0.64 mCi in 1 ml", "value": 35.64, "unit": "%"}, {"measurement": "% of the dose at the lesion (activity in the lesion as proportion of total activity in the animal)", "setting": "[1]; 4 hours post administration, Example 4, rabbit no. 1587, 1.18 mCi in 1 ml", "value": 32.03, "unit": "%"}, {"measurement": "% of the dose at the lesion (activity in the lesion as proportion of total activity in the animal)", "setting": "[1]; 4 hours post administration, Example 5, rabbit no. 1586, 0.45 mCi in 1 ml", "value": 36.39, "unit": "%"}, {"measurement": "% of the dose at the lesion (activity in the lesion as proportion of total activity in the animal)", "setting": "[1]; 24 hours post administration, Example 3, rabbit no. 1584, 0.64 mCi in 1 ml", "value": 16.63, "unit": "%"}, {"measurement": "% of the dose at the lesion (activity in the lesion as proportion of total activity in the animal)", "setting": "[1]; 24 hours post administration, Example 4, rabbit no. 1587, 1.18 mCi in 1 ml", "value": 20.01, "unit": "%"}, {"measurement": "% of the dose at the lesion (activity in the lesion as proportion of total activity in the animal)", "setting": "[1]; 24 hours post administration, Example 5, rabbit no. 1586, 0.45 mCi in 1 ml", "value": 15.24, "unit": "%"}, {"measurement": "% of the dose at the lesion (activity at the lesion as proportion of total activity in the animal)", "setting": "[2]; 5 minutes post administration", "value": 55.38, "unit": "%"}, {"measurement": "% of the dose at the lesion (activity in the lesion as proportion of total activity in the animal)", "setting": "[2]; 5 minutes post administration", "value": 40.74, "unit": "%"}, {"measurement": "% of the dose at the lesion (activity at the lesion as proportion of total activity in the animal)", "setting": "[2]; 4 hours post administration", "value": 46.78, "unit": "%"}, {"measurement": "% of the dose at the lesion (activity in the lesion as proportion of total activity in the animal)", "setting": "[2]; 4 hours post administration", "value": 35.13, "unit": "%"}, {"measurement": "% of the dose at the lesion (activity at the lesion as proportion of total activity in the animal)", "setting": "[2]; 24 hours post administration", "value": 21.45, "unit": "%"}, {"measurement": "% of the dose at the lesion (activity in the lesion as proportion of total activity in the animal)", "setting": "[2]; 24 hours post administration", "value": 23.69, "unit": "%"}]}
